{"source": "patent US20110105515A1", "about": "“TARGETING THE ONCOPROTEIN NUCLEOPHOSMIN” (President and Fellows of Harvard College, priority 2007, published 2011)", "key": {"p53 [1]": {"tested_on": "p53", "assay": "Effect of (+)-avrainvillamide incubation on p53/nucleophosmin, T-47D cells (Western-blot)", "assay_type": "cell-based, human", "settings": "24 h", "experimental": "(§1) Four 6-well plates (two for each cell line) were charged with 6 mL per well of cell suspension at 2×10^5 cells/mL. […] The following day, stock solutions of (+)-avrainvillamide (1) in fresh cell culture medium were prepared as indicated below:\n(§2) To each 6-mL sample, a 200-μL aliquot of the appropriate stock solution was added, resulting in a final concentration of 0-4 μM (+)-avrainvillamide (1). The samples were returned to the incubator (37° C., 5% CO2) for 24 h.\n(§3) The cells were resuspended in 1 mL PBS and mixed thoroughly. A 500-μL aliquot from each sample was transferred to a fresh 1.5-mL centrifuge tube. All the samples were centrifuged (5 min at 500×g) and the supernatant was discarded. The resulting 20 samples (10 samples of T-47D cells, treated with 0-4 μM (+)-avrainvillamide, and 10 samples of LNCaP cells, treated with 0-4 μM (+)-avrainvillamide (1), where each sample contained the number of cells from 1 well of a 6-well plate) were separated into two groups. One group of samples was lysed in RIPA buffer (see below) to prepare a series of whole-cell lysates. The other group of samples was first treated with sucrose-hypotonic buffer to prepare a series of cytosolic lysates. The remaining pellets were washed and treated with RIPA buffer to prepare a series of nuclear-enriched lysates (see below)."}, "HeLa S3 cells [2]": {"tested_on": "HeLa S3 cells", "assay": "Apoptosis in HeLa S3 cells (Yo-Pro cell permeability, annexin-binding)", "assay_type": "cell-based, human", "settings": "Yo-Pro cell permeability and annexin-binding experiments"}, "LNCaP and T-47D cells": {"tested_on": "LNCaP and T-47D cells", "assay": "Western blot for apoptotic markers in LNCaP and T-47D cells", "assay_type": "cell-based, human"}, "p53 [3]": {"tested_on": "p53", "assay": "Effect of (+)-avrainvillamide incubation on p53/nucleophosmin, LNCaP cells (Western-blot)", "assay_type": "cell-based, human", "settings": "24 h", "experimental": "as §1, §2, §3"}, "[4]": {"settings": "previous report: 48-h incubation, MTS/PMS; cited from earlier work"}, "proteins of T-47D cells": {"tested_on": "proteins of T-47D cells", "assay": "Affinity-isolation from T-47D cells, LC-MS/MS analysis of proteins", "settings": "narrower region of the gel; equal concentrations"}, "HeLa S3 cells [5]": {"tested_on": "HeLa S3 cells", "assay": "Transfection/apoptosis experiments in nucleophosmin-depleted HeLa S3 cells", "assay_type": "cell-based, human", "settings": "24 h, Yo-Pro iodide/propidium iodide flow cytometry", "experimental": "The concentration of the cell suspension was determined using a hemacytometer, and a suspension of 1×10^5 cells/mL was prepared.\nA siRNA targeting NPM1.1 (Applied Biosystems, Cat. No. AM16708; ID 143640; 11.4 μL from a 50 μM stock solution) was added to Opti-MEM (938.6 μL). At the same time, a control siRNA (Applied Biosystems, Cat. No. AM4611; 11.4 μL from a 50 μM stock) was similarly added to Opti-MEM (938.6 μL).\nThe culture flasks were rinsed with an additional 5 mL medium, which was likewise added to the centrifuge tubes.\nThe concentration of the cell suspensions was determined using a hemacytometer. Over the course of the 2 d transfection period, both the transfected and mock-transfected cells grew ˜4-fold.\n12-well plates were charged with 3 mL per well of suspensions of the transfected or mock-transfected cells, at 2.5×10^4 cells per mL. […] The following day, solutions of cell culture medium containing (+)-avrainvillamide or vehicle control were prepared. 500-μL aliquots of these solutions were added to the 3-mL samples. The treated samples were returned to the incubator (37° C., 5% CO2) for 24 h.\nThe supernatant was discarded, and the samples were cooled on ice. Apoptosis detection buffer (500 μL; see above for preparation) was added to each sample. […]\nEach sample was analyzed on an LSRII flow cytometer, with 20,000 events recorded per sample. […]"}, "T-47D cells": {"tested_on": "T-47D cells", "assay": "Cell cycle effects in T-47D cells", "assay_type": "cell-based, human"}, "nucleophosmin": {"target": "nucleophosmin (Homo sapiens, UniProt P06748)", "assay": "Competitive binding affinity-isolation with probe 5 in T-47D lysates, nucleophosmin"}, "peroxiredoxin 1 (PRX1)": {"target": "T1, peroxiredoxin 1 (PRX1) (Homo sapiens, UniProt Q06830)", "T1 construct": "endogenous in cells; host or cells: T-47D lysate", "assay": "Competitive binding affinity-isolation with probe 5 in T-47D lysates, peroxiredoxin 1", "settings": "10 μM probe 5, 100 μM inhibitor", "source_text": "(§4) The supernatant was discarded.\n(§5) See above for solution preparation."}, "exportin-1 (XPO1)": {"target": "T2, exportin-1 (XPO1) (Homo sapiens, UniProt O14980)", "T2 construct": "endogenous in cells; host or cells: T-47D lysate", "assay": "Competitive binding affinity-isolation with probe 5 in T-47D lysates, exportin-1", "settings": "10 μM probe 5, 100 μM inhibitor", "source_text": "as §4, §5"}, "[6]": {"tested_on": "MALME-3M and MALME-3 cells", "assay": "Selectivity assay, malignant melanoma MALME-3M versus fibroblast MALME-3", "assay_type": "cell-based", "settings": "for selectivity factor, melanoma cells relative to fibroblast control (LC25, 25 percent cell death, estimate of GI50): MALME-3M versus MALME-3", "experimental": "[…]. A cell line from a healthy fibroblast from the same patient has also been deposited with the American Type Cell Culture Corporation (ATCC). Fresh stockes of both MALME-3M and MALME-3 from ATCC. Avrainvillamide was test against the two cells lines at the same time, taking all possible precautions to ensure that both sets of samples were treated identically. […] As a measure of cytotoxicity and antiproliferative activity, we calculated both LC50 and LC25 (as an estimate of GI50).\nThe 9.7-fold selectivity at 25 percent cell death is representative of at least a modest degree of selectivity. For comparison, cytochalsine B and geldanamycin were analyzed in identical experiments. Cytochalasine B is a non-selective cytotoxic agent for which a selectivity factor of 0.2 at 25 percent cell death was observed. Geldanamycin is known to be a potent, selective inhibitor of tumor cell growth for which a selectivity factor of >100 at 25 percent cell death was observed."}}, "note": "Entries after “also recorded” stand apart in the source; their conditions may differ.", "data": [{"molecule": "CC1(C)C=Cc2c(ccc3c2[N+]([O-])=C2C3=C[C@@]34NC(=O)C5(CCCN5C3=O)CC4C2(C)C)O1", "note": "(single isomer, unassigned; (+)) [compound 1, (+)-Avrainvillamide]", "values": [{"measurement": "cellular p53 at the highest concentration", "setting": "p53 [1]; 4 μM", "value": "reduction in cellular p53"}, {"measurement": "concentration giving a substantial increase in cellular p53", "setting": "p53 [1]; Western-blot", "value": 500, "unit": "nM"}, {"measurement": "cell death in HeLa S3 cells", "setting": "HeLa S3 cells [2]", "value": "cell death through apoptosis"}, {"measurement": "apoptotic markers (Western blot)", "setting": "LNCaP and T-47D cells", "value": "appearance of pro-apoptotic factors"}, {"measurement": "concentration giving a substantial increase in cellular p53", "setting": "p53 [3]", "value": 500, "unit": "nM"}, {"measurement": "fold more potent than the unnatural enantiomer (antiproliferative activity)", "setting": "[4]", "value": "~9", "unit": "fold"}, {"measurement": "detection of nucleophosmin by LC-MS/MS after affinity isolation", "setting": "proteins of T-47D cells", "value": "not detected"}, {"measurement": "apoptosis in HeLa S3 cells reduced in nucleophosmin (siRNA) relative to mock-transfected cells", "setting": "HeLa S3 cells [5]", "value": "enhanced sensitivity"}, {"measurement": "cell cycle accumulatory effects", "setting": "T-47D cells", "value": "immediate decrease in the number of cells in S-phase, followed by an increase in G2/M cells"}, {"measurement": "binding of nucleophosmin to probe 5 in the presence of a 10-fold higher concentration of competitor", "setting": "nucleophosmin; 10 μM probe 5, 100 μM competitor, nuclear-enriched and whole-cell T-47D lysates", "value": "inhibited; also recorded: most effective"}, {"measurement": "concentration required for inhibition of probe 5-nucleophosmin binding", "setting": "nucleophosmin; T-47D lysate", "value": 100, "unit": "µM"}, {"measurement": "inhibition of binding of nucleophosmin to probe 5 by analogues (FIG. 4)", "setting": "nucleophosmin; T-47D nuclear-enriched lysate", "value": "inhibited essentially equivalently"}, {"measurement": "blocking of the binding of probe 5 to peroxiredoxin 1 (PRX1)", "setting": "peroxiredoxin 1 (PRX1)", "value": "capable of blocking"}, {"measurement": "blocking of the binding of probe 5 to exportin-1 (XPO1)", "setting": "exportin-1 (XPO1)", "value": "capable of blocking"}, {"measurement": "activity against MALME-3M cells", "setting": "[6]; MALME-3M", "value": "nanomolar activity"}, {"measurement": "selectivity factor, melanoma cells relative to fibroblast control (LC25, 25 percent cell death, estimate of GI50)", "setting": "[6]; listed as Avrainvillamide", "value": 9.7}, {"measurement": "selectivity factor, melanoma cells relative to fibroblast control (LC25, 25 percent cell death, estimate of GI50)", "setting": "[6]; listed as avrainvillamide", "value": "~10"}]}]}
